According to article PMC9247194, “Mapping of the sGC Stimulator BAY 41-2272 Binding Site on H-NOX Domain and Its Regulation by the Redox State of the Heme” (Frontiers in Cell and Developmental Biology, 2022):

Target: T1, Ns H-NOX (Nostoc sp. PCC 7120 = FACHB-418, UniProt A0ACD6B960, C139A)
T1 construct: gene alr2278
Test: 1H-15N HSQC NMR titration (chemical shift perturbation)
Format: binding
Settings: 298 K; heme-bound, no NO; surface site next to heme; one KD per perturbed residue

T1 sequence (A0ACD6B960 entry or part of it C139A): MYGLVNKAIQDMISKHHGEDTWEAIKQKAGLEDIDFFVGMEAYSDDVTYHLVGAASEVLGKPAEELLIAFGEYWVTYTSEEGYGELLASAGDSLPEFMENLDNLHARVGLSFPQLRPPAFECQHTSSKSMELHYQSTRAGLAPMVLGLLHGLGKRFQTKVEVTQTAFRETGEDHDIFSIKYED

Nc1nc(-c2nn(Cc3ccccc3F)c3ncccc23)ncc1C1CC1 [BAY 41-2272]
KD: yielding the binding constant (K D ) for each residue
